# Reference: US20250144067A1, “PERSONALIZED STARVATION THERAPY FOR CANCER” (Faeth Therapeutics, Inc., priority 2021, published 2025)
# Like-named read-outs stand apart in the source and are kept apart here.
# Columns and labels:
# [1] = tested on: NCI-H292 lung cancer cells; test: FDA drug screening, complete media vs cholesterol-free media with simvastatin (TABLE 2); assay type: cell-based, human
# [2] = tested on: NCI-H292 lung cancer cells; test: FDA drug screening, complete media vs cholesterol-free media without statin (TABLE 1); assay type: cell-based, human
# [3] = NCI-H292 cells, cholesterol-free media with simvastatin 0.04 μM, FDA drug library screen (TABLE 2)
# [4] = NCI-H292 cells, complete media, FDA drug library screen (TABLE 2)
# [5] = complete media minus cholesterol-free media + simvastatin (0.04 μM), >0 enhanced anti-cancer activity, about 0 neutral, <0 antagonist
# [6] = Complete minus Cholesterol-free, greater than 0 enhanced anti-cancer activity, about 0 neutral, below 0 antagonists
# [7] = NCI-H292 cells in cholesterol-free media without statin
# [8] = NCI-H292 cells in complete media
# [9] = NCI-H292 cells, FDA drug library screen, cholesterol-free media with simvastatin 0.04 μM
# [10] = NCI-H292 cells, FDA drug library screen, complete media
# [11] = complete media vs cholesterol-free media + simvastatin (0.04 μM), […]
# [12] = Complete minus Cholesterol-free, […]
# [13] = NCI-H292 cells, cholesterol-free media without statin
# [14] = complete vs cholesterol-free media, […]
# [15] = complete media vs cholesterol-free media + simvastatin (0.04 μM), >0 enhanced anti-cancer activity, about 0 neutral, <0 antagonist
# [16] = complete vs cholesterol-free media, greater than 0 enhanced anti-cancer activity, about 0 neutral, below 0 antagonists
# [17] = NCI-H292 cells, cholesterol-free media without statin, FDA drug library screen
# [18] = NCI-H292 cells, complete media, FDA drug library screen
# [19] = NCI-H292 cells, drug in cholesterol-free media with simvastatin 0.04 μM
# [20] = NCI-H292 cells, drug in complete media
# [21] = complete media minus cholesterol-free media + simvastatin, >0 enhanced anti-cancer activity, about 0 neutral, <0 antagonist
# [22] = NCI-H292 cells, FDA library drug in cholesterol-free media with simvastatin 0.04 μM
# [23] = NCI-H292 cells, FDA library drug in complete media
# [24] = Complete minus Cholesterol-free, greater than 0 enhanced anti-cancer activity, about 0 neutral, below 0 antagonist
# [25] = Complete minus Cholesterol-free, >0 enhanced anti-cancer activity, about 0 neutral, <0 antagonist
# [26] = NCI-H292 cells, FDA drug library screen, cholesterol-free media without statin
# [27] = NCI-H292 cells, cholesterol-free media with simvastatin 0.04 μM, cell growth value in FDA drug screen
# [28] = NCI-H292 cells, complete media, cell growth value in FDA drug screen
# [29] = complete media minus cholesterol-free media + simvastatin (0.04 μM), […]
# [30] = complete vs cholesterol-free media, >0 enhanced anti-cancer activity, about 0 neutral, <0 antagonist
substance,measurement,setting,value
Phentolamine (mesylate),Cholesterol-free media + simvastatin (0.04 μM),[1]; [3],0.9072
same,Complete Media,[1]; [4],0.8992
same,Difference,[1]; [5],−0.01
same,Difference,[2]; [6],−0.51
same,Cholesterol-free,[2]; [7],1.404
same,Complete,[2]; [8],0.8982
Phillyrin,Cholesterol-free media + simvastatin (0.04 μM),[1]; [9],1.405
same,Complete Media,[1]; [10],1.262
same,Difference,[1]; [11],−0.14
same,Difference,[2]; [12],−0.77
same,Cholesterol-free,[2]; [7],1.584
same,Complete,[2]; [8],0.8182
Pimavanserin tartrate,Cholesterol-free media + simvastatin (0.04 μM),[1]; [9],1.092
same,Complete Media,[1]; [10],0.9419
same,Difference,[1]; [11],−0.15
same,Cholesterol-free,[2]; [13],1.261
same,Complete,"[2]; NCI-H292 cells, complete media",0.9005
same,Difference,[2]; [14],−0.36
Pixantrone (dimaleate),Cholesterol-free media + simvastatin (0.04 μM),[1]; [9],1.334
same,Complete Media,[1]; [10],1.212
same,Difference,[1]; [15],−0.12
same,Cholesterol-free,[2]; [13],1.33
same,Complete,"[2]; NCI-H292 cells, complete media",0.8848
same,Difference,[2]; [16],−0.45
Polidocanol,Cholesterol-free media + simvastatin (0.04 μM),[1]; [9],1.046
same,Complete Media,[1]; [10],0.8917
same,Difference,[1]; [11],−0.15
same,Cholesterol-free,[2]; [17],0.7606
same,Complete,[2]; [18],0.9235
same,Difference,[2]; [14],0.16
Polymyxin B (Sulfate),Cholesterol-free media + simvastatin (0.04 μM),[1]; [19],1.169
same,Complete Media,[1]; [20],0.9427
same,Difference,[1]; [11],−0.23
same,Difference,[2]; [12],−0.03
same,Cholesterol-free,[2]; [17],0.9793
same,Complete,[2]; [18],0.9463
Potassium guaiacolsulfonate (hemihydrate),Cholesterol-free media + simvastatin (0.04 μM),[1],1.702
same,Complete Media,[1],1.838
same,Difference,[1],0.14
same,Cholesterol-free,[2],1.74
same,Complete,[2],0.9478
same,Difference,[2],−0.79
Prednisolone (disodium phosphate),Cholesterol-free media + simvastatin (0.04 μM),[1]; [9],0.4379
same,Complete Media,[1]; [10],0.7375
same,Difference,[1]; [21],0.30
same,Cholesterol-free,[2]; [13],1.087
same,Complete,"[2]; NCI-H292 cells, complete media",0.6422
same,Difference,[2]; [16],−0.44
Prednisolone (hemisuccinate),Cholesterol-free media + simvastatin (0.04 μM),[1],0.7218
same,Difference,[1],0.06
same,Cholesterol-free,[2],0.8784
same,Complete,[2],0.4751
same,Difference,[2],−0.40
Primaquine (Diphosphate),Cholesterol-free media + simvastatin (0.04 μM),[1],1.421
same,Complete Media,[1],1.652
same,Difference,[1],0.23
same,Cholesterol-free,[2],1.192
same,Complete,[2],0.8514
same,Difference,[2],−0.34
Prucalopride (succinate),Cholesterol-free media + simvastatin (0.04 μM),[1]; [9],1.172
same,Complete Media,[1]; [10],1.048
same,Difference,[1]; [15],−0.12
same,Cholesterol-free,[2]; [13],1.329
same,Complete,"[2]; NCI-H292 cells, complete media",0.905
same,Difference,[2]; [16],−0.42
Pyrantel (tartrate),Cholesterol-free media + simvastatin (0.04 μM),[1]; [22],1.712
same,Complete Media,[1]; [23],1.209
same,Difference,[1]; [15],−0.50
same,Difference,[2]; [24],−0.17
same,Complete,[2]; [10],0.9815
Quetiapine (hemifumarate),Cholesterol-free media + simvastatin (0.04 μM),[1]; [9],0.6141
same,Complete Media,[1]; [10],0.8428
same,Difference,[1]; [21],0.23
same,Difference,[2]; [25],−0.22
same,Cholesterol-free,[2]; [13],0.9339
same,Complete,"[2]; NCI-H292 cells, complete media",0.7112
Rasagiline (mesylate),Cholesterol-free media + simvastatin (0.04 μM),[1]; [9],1.319
same,Complete Media,[1]; [10],1.208
same,Difference,[1]; [15],−0.11
same,Difference,[2]; [24],−0.16
same,Cholesterol-free,[2]; [26],0.8816
same,Complete,[2]; [10],0.7256
Ribociclib succinate,Cholesterol-free media + simvastatin (0.04 μM),[1]; [3],0.606
same,Complete Media,[1]; [4],0.6094
same,Difference,[1]; [5],0.00
same,Difference,[2]; [25],−0.23
same,Cholesterol-free,[2]; [13],0.9857
same,Complete,"[2]; NCI-H292 cells, complete media",0.7555
Ribociclib succinate hydrate,Cholesterol-free media + simvastatin (0.04 μM),[1]; [27],0.4954
same,Complete Media,[1]; [28],0.6321
same,Difference,[1]; [21],0.14
same,Difference,[2]; [25],−0.21
same,Cholesterol-free,[2]; [13],0.9345
same,Complete,"[2]; NCI-H292 cells, complete media",0.7226
Riboflavin (phosphate sodium),Cholesterol-free media + simvastatin (0.04 μM),[1]; [9],1.127
same,Complete Media,[1]; [10],0.9972
same,Difference,[1]; [15],−0.13
same,Cholesterol-free,[2]; [13],1.308
same,Complete,"[2]; NCI-H292 cells, complete media",0.9828
same,Difference,[2]; [16],−0.32
Rilmenidine (hemifumarate),Cholesterol-free media + simvastatin (0.04 μM),[1]; [22],1.87
same,Complete Media,[1]; [23],1.431
same,Difference,[1]; [11],−0.44
same,Cholesterol-free,[2]; [13],1.211
same,Complete,"[2]; NCI-H292 cells, complete media",0.771
same,Difference,[2]; [14],−0.44
Rilmenidine (phosphate),Cholesterol-free media + simvastatin (0.04 μM),[1]; [3],1.249
same,Complete Media,[1]; [4],1.215
same,Difference,[1]; [29],−0.03
same,Difference,[2]; [12],0.01
same,Cholesterol-free,[2]; [17],0.9893
same,Complete,[2]; [18],0.995
Rivastigmine (tartrate),Cholesterol-free media + simvastatin (0.04 μM),[1]; [3],1.478
same,Complete Media,[1]; [4],1.417
same,Difference,[1]; [29],−0.06
same,Cholesterol-free,[2]; [13],1.242
same,Complete,"[2]; NCI-H292 cells, complete media",0.9137
same,Difference,[2]; [14],−0.33
Rucaparib (phosphate),Complete Media,[1]; [4],1.39
same,Difference,[1]; [5],−0.02
same,Cholesterol-free,[2]; [17],0.6538
same,Complete,[2]; [18],0.9448
same,Difference,[2]; [30],0.29
Rupatadine (Fumarate),Cholesterol-free media + simvastatin (0.04 μM),[1]; [9],0.9792
same,Complete Media,[1]; [10],1.536
same,Difference,[1]; [21],0.56
same,Difference,[2]; [25],−0.23
same,Cholesterol-free,[2]; [13],1.308
Ruxolitinib (phosphate),Cholesterol-free media + simvastatin (0.04 μM),[1]; [19],0.8715
same,Complete Media,[1]; [20],0.6795
same,Difference,[1]; [15],−0.19
same,Difference,[2]; [25],−0.04
same,Cholesterol-free,[2]; [17],0.6764
same,Complete,[2]; [18],0.6315
Safinamide (mesylate),Complete Media,[1]; [20],0.843
same,Difference,[1]; [15],−0.20
same,Difference,[2]; [24],−0.18
Salbutamol (hemisulfate),Cholesterol-free media + simvastatin (0.04 μM),[1]; [22],2.036
same,Complete Media,[1]; [23],1.453
same,Difference,[1]; [15],−0.58
same,Difference,[2]; [24],−0.13
same,Cholesterol-free,[2]; [26],1.595
same,Complete,[2]; [10],1.464
Saquinavir (Mesylate),Cholesterol-free media + simvastatin (0.04 μM),[1]; [9],2.052
same,Complete Media,[1]; [10],1.925
same,Difference,[1]; [15],−0.13
same,Cholesterol-free,[2]; [17],0.7536
same,Complete,[2]; [18],1.206
same,Difference,[2]; [30],0.45
Selumetinib (sulfate),Cholesterol-free media + simvastatin (0.04 μM),[1]; [9],0.2941
same,Difference,[1]; [11],−0.10
same,Difference,[2]; [12],−0.06
same,Cholesterol-free,[2]; [17],0.3932
same,Complete,[2]; [18],0.3287
Sertaconazole (nitrate),Cholesterol-free media + simvastatin (0.04 μM),[1]; [9],0.3702
same,Complete Media,[1]; [10],0.8436
same,Difference,[1]; [21],0.47
same,Cholesterol-free,[2]; [17],0.6893
same,Complete,[2]; [18],0.8595
same,Difference,[2]; [30],0.17
Setiptiline (maleate),Cholesterol-free media + simvastatin (0.04 μM),[1]; [19],1.022
same,Complete Media,[1]; [20],0.7709
same,Difference,[1]; [15],−0.25
same,Difference,[2]; [25],0.02
same,Cholesterol-free,[2]; [17],0.9606
same,Complete,[2]; [18],0.9832
Sildenafil (citrate),Cholesterol-free media + simvastatin (0.04 μM),[1]; [3],0.9766
same,Complete Media,[1]; [4],0.9106
same,Difference,[1]; [5],−0.07
same,Difference,[2]; [6],−0.63
same,Cholesterol-free,[2]; [7],1.504
same,Complete,[2]; [8],0.8696
Sisomicin (sulfate),Cholesterol-free media + simvastatin (0.04 μM),[1]; [27],0.697
same,Complete Media,[1]; [28],0.7346
same,Difference,[1]; [21],0.04
same,Difference,[2]; [25],−0.04
same,Cholesterol-free,[2]; [17],0.9293
same,Complete,[2]; [18],0.8918
Sitagliptin (phosphate monohydrate),Cholesterol-free media + simvastatin (0.04 μM),[1]; [19],1.13
same,Complete Media,[1]; [20],0.959
same,Difference,[1]; [15],−0.17
same,Cholesterol-free,[2]; [13],1.047
same,Complete,"[2]; NCI-H292 cells, complete media",0.6455
same,Difference,[2]; [16],−0.40
Sodium tauroglycocholate,Cholesterol-free media + simvastatin (0.04 μM),[1]; [22],1.256
same,Complete Media,[1]; [23],0.9729
same,Difference,[1]; [11],−0.28
same,Difference,[2]; [12],−0.95
same,Cholesterol-free,[2]; [7],1.712
same,Complete,[2]; [8],0.7634
Solifenacin (Succinate),Cholesterol-free media + simvastatin (0.04 μM),[1],0.8847
same,Complete Media,[1],0.7655
same,Difference,[1],−0.12
same,Cholesterol-free,[2],1.612
same,Complete,[2],1.244
same,Difference,[2],−0.37
Sorafenib (Tosylate),Cholesterol-free media + simvastatin (0.04 μM),[1]; [9],1.142
same,Difference,[1]; [11],−0.09
same,Cholesterol-free,[2]; [17],0.8797
same,Complete,[2]; [18],0.9619
same,Difference,[2]; [14],0.08
Spiramycin,Cholesterol-free media + simvastatin (0.04 μM),[1]; [19],1.277
same,Difference,[1]; [15],−0.16
same,Difference,[2]; [6],−1.20
same,Cholesterol-free,[2]; [7],2.038
same,Complete,[2]; [8],0.8421
Streptomycin (sulfate),Cholesterol-free media + simvastatin (0.04 μM),[1]; [19],1.77
same,Complete Media,[1]; [20],1.586
same,Difference,[1]; [11],−0.18
same,Difference,[2]; [12],−1.05
same,Cholesterol-free,[2]; [7],2.317
same,Complete,[2]; [8],1.265
